Test results: patent publication US20190231768A1, “P[…] TREATING DRUG INDUCED DYSKINESIAS” (PRILENIA THERAPEUTICS DEVELOPMENT LTD., priority 2017, published 2019)
Where two headings read alike, the source gives them in different places.

Key:
D2R [1] = molecular target: D2R (Homo sapiens, UniProt P14416); assay: in vivo; conditions: read-out: % D2R occupancy
D2R [2] = molecular target: T1, D2R (Rattus norvegicus, UniProt P61169); conditions: cited from earlier work
σ1R [3] = molecular target: T2, σ1R (Homo sapiens, UniProt Q99720); conditions: human 67.5 mg bid; based on human PET data and PK profile
[4] = test system: patients with Huntington's Disease (HD); conditions: 45 mg twice daily (90 mg/day); cited from earlier work
Muscarinic M2 = Muscarinic M2 (Homo sapiens, UniProt P08172)
Experimental: (§1) NMDA, 5-HT6 and tachykinin NK1 receptors along with the dopamine transporter (DAT), norepinephrine transporter (NET) and serotonin transporter (SERT). The specific ligand binding to the receptors was defined as the difference between the total binding and the nonspecific binding determined in the presence of an excess of unlabeled ligand. IC50 values were determined by a non-linear, least squares regression analysis using MathIQ™ (ID Business Solutions Ltd., UK). […] Hill coefficient (nH), defining the slope of the competitive binding curve, was calculated using MathIQ™.

[5] = molecular target: Norepinephrine transporter (NET) (Homo sapiens, UniProt P23975)
Experimental: as §1

Adrenergic α2C = Adrenergic α2C (Homo sapiens, UniProt P18825)
Experimental: as §1

NMDAR = test system: NMDAR
Experimental: as §1

Serotonin 5-HT7 = Serotonin 5-HT7 (Homo sapiens, UniProt P34969)
Experimental: as §1

Sigma-1 (σ1R) = Sigma-1 (σ1R) (Homo sapiens, UniProt Q99720)
Experimental: as §1

Serotonin 5-HT1A = Serotonin 5-HT1A (Homo sapiens, UniProt P08908)
Experimental: as §1

Sigma-2 (σ2R) = Sigma-2 (σ2R) (Homo sapiens, UniProt Q5BJF2)
Experimental: as §1

5-HT6 = 5-HT6 (Homo sapiens, UniProt P50406)
Experimental: as §1

Serotonin 5-HT2A = Serotonin 5-HT2A (Homo sapiens, UniProt P28223)
Experimental: as §1

[6] = molecular target: Serotonin transporter (SERT) (Homo sapiens, UniProt P31645)
Experimental: as §1

Tachykinin NK1 = Tachykinin NK1 (Homo sapiens, UniProt P25103)
Experimental: as §1

Histamine H3 = Histamine H3 (Homo sapiens, UniProt Q9Y5N1)
Experimental: as §1

Dopamine D3 = Dopamine D3 (Homo sapiens, UniProt P35462)
Experimental: as §1

Dopamine D2 = Dopamine D2 (Homo sapiens, UniProt P14416)
Experimental: as §1

adrenergic alpha-1 = conditions: in the micromolar range
Experimental: as §1

[7] = molecular target: Dopamine transporter (DAT) (Homo sapiens, UniProt Q01959)
Experimental: as §1

Adrenergic α2A = Adrenergic α2A (Homo sapiens, UniProt P08913)
Experimental: as §1

[8] = test system: human subject afflicted with LID; conditions: 45, 90, 135 or 180 mg/day oral, add-on to amantadine
[9] = test system: human subject afflicted with LID; conditions: greater than 100 mg/day oral, add-on to levodopa
Description: The therapy provides efficacy in treating the patient without undue adverse side effects or affecting the safety of the treatment: […]

HD patients = conditions: cited from earlier work; for TMS change from baseline vs placebo: HD stage 1 (baseline TFC≥11), post hoc
σ1R [10] = molecular target: T2, σ1R; assay: in vivo; conditions: read-out: % σ1R occupancy
6-OHDA-lesioned rat = conditions: 25 μmole/kg (8 mg/kg); cited from earlier work
σ1R [11] = molecular target: T2, σ1R; assay: in vivo
Description: (§2) NHP σ1R occupancy data are extrapolated from in vitro binding investigations with 3H-fluspidine, known and specific σ1R tracer, against human σ1R.

D2R [12] = molecular target: T1, D2R; assay: in vivo; conditions: po, read-out: % D2R occupancy
Description: as §2

σ1R [13] = molecular target: σ1R (Rattus norvegicus, UniProt Q9R0C9); assay: in vivo; conditions: po, read-out: % σ1R occupancy
Description: as §2

T2 sequence (Q99720 whole entry): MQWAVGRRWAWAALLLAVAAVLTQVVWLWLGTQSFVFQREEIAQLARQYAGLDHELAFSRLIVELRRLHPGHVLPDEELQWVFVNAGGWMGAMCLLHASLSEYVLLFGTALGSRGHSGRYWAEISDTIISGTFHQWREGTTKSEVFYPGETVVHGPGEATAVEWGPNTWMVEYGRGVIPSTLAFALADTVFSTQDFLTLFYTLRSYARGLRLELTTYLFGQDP
T1 sequence (P61169 whole entry): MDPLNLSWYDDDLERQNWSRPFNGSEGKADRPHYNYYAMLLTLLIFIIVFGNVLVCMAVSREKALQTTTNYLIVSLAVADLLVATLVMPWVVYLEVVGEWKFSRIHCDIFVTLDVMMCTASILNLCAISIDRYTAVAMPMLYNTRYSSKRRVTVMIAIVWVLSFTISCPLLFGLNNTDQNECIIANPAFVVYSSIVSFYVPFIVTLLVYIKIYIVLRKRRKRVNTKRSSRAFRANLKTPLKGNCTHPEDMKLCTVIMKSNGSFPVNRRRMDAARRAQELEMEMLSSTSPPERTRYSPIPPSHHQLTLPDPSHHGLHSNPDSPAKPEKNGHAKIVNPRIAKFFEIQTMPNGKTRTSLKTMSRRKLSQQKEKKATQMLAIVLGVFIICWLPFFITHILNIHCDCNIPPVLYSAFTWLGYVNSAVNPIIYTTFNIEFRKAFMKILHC
Chain of D2R (Homo sapiens, UniProt P14416) (P14416 whole entry): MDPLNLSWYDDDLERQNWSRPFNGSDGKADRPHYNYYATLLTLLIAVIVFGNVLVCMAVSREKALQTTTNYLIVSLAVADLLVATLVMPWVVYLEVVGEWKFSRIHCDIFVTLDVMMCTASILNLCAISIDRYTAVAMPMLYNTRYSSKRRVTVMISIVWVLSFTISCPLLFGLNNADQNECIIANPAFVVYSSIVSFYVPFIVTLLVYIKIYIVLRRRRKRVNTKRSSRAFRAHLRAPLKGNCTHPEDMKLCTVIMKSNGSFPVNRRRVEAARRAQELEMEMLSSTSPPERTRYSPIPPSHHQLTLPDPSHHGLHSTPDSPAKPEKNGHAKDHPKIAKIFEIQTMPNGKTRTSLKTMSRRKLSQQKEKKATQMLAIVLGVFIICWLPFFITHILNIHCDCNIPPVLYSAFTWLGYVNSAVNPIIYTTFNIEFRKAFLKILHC
Chain of Sigma-1 (σ1R) (Q99720 whole entry, species assumed): as the sequence (Q99720 whole entry) above
Chain of Dopamine D2 (P14416 whole entry): as the sequence (P14416 whole entry) above
Chain of Dopamine D3 (P35462 whole entry): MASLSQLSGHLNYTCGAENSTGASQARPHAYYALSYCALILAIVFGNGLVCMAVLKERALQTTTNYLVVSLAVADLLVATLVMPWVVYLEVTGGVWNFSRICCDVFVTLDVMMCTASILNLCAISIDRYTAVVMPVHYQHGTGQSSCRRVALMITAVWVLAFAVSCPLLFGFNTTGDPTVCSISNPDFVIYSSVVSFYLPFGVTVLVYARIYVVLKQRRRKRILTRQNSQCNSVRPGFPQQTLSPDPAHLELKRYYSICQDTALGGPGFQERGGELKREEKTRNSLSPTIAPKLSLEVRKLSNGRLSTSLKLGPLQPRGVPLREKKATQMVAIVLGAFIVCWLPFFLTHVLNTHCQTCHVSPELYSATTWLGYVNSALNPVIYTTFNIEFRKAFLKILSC
Chain of Serotonin transporter (SERT) (P31645 whole entry, species assumed): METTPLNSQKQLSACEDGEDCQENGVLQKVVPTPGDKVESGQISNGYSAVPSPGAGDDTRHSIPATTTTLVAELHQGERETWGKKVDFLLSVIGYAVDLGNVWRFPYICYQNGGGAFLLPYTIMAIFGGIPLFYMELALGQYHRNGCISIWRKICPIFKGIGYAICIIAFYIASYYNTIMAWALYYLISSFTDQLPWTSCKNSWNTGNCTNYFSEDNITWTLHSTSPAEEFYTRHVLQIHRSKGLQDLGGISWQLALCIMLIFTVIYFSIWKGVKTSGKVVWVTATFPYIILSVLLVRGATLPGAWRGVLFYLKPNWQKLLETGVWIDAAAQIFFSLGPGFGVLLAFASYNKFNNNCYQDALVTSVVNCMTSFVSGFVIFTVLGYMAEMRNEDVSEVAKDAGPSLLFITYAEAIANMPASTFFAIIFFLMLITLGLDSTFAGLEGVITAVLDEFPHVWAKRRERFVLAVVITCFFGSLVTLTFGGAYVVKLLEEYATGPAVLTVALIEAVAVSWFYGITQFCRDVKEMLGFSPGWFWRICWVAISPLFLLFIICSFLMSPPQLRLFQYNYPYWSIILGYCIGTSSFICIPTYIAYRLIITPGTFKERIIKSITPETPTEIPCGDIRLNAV
Chain of Tachykinin NK1 (P25103 whole entry): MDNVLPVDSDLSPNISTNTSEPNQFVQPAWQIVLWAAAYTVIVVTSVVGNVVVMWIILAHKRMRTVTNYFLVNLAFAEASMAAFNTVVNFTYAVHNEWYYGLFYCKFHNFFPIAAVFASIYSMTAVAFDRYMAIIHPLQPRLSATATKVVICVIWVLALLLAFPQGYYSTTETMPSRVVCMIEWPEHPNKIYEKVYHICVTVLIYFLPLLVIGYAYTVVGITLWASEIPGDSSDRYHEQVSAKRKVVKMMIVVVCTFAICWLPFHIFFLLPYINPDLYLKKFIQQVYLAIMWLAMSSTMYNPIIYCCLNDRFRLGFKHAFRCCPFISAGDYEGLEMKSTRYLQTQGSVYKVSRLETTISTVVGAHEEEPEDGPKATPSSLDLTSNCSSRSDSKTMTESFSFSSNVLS
Chain of Histamine H3 (Q9Y5N1 whole entry): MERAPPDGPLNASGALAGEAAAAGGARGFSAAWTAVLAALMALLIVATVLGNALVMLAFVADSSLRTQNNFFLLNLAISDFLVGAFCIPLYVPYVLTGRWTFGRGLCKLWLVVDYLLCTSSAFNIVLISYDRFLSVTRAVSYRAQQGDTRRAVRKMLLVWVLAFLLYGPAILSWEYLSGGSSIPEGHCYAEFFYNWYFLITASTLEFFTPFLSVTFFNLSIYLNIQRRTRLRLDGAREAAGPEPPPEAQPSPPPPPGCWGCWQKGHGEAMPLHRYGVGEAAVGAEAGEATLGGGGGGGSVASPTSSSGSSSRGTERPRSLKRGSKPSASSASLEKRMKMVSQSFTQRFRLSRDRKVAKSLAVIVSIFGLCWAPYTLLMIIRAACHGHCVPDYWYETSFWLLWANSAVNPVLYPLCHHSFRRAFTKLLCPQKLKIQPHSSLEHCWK
Chain of Dopamine transporter (DAT) (Q01959 whole entry, species assumed): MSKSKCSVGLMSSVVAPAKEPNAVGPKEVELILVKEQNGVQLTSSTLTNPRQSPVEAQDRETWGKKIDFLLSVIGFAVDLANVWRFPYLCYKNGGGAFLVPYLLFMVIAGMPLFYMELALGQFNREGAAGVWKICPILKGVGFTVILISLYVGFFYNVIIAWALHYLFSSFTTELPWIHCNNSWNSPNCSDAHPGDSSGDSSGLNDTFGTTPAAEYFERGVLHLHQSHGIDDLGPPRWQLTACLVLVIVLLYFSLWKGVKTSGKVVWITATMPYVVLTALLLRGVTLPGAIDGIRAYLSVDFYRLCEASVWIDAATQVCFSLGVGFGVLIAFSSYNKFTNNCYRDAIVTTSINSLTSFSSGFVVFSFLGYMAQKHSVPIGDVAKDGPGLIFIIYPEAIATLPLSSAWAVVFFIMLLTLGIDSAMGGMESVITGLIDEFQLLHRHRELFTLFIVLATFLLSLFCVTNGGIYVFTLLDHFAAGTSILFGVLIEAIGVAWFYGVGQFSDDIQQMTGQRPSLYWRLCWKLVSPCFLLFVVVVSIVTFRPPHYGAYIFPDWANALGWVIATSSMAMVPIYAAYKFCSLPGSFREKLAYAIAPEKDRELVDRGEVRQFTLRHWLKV
Chain of Muscarinic M2 (P08172 whole entry): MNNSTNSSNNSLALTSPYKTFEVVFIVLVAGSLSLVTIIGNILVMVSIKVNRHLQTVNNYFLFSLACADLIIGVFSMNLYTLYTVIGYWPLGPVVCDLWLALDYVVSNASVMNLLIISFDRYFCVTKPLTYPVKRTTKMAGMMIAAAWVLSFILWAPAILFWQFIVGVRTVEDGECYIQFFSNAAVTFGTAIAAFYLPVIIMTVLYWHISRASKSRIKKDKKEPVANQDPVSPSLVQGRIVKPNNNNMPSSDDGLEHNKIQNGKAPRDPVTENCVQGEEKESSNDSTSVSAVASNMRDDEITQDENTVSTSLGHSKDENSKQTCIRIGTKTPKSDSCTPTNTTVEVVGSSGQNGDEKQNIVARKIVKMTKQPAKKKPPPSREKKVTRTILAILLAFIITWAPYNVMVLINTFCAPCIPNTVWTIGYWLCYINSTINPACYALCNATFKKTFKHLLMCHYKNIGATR
Chain of σ1R (Rattus norvegicus, UniProt Q9R0C9) (Q9R0C9 whole entry): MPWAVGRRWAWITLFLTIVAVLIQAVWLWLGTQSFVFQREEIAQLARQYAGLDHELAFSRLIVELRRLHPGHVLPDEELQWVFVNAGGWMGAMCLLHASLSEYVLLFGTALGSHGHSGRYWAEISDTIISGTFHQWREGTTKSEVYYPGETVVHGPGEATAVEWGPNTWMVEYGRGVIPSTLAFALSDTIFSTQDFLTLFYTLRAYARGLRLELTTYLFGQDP
Chain of Adrenergic α2A (P08913 whole entry): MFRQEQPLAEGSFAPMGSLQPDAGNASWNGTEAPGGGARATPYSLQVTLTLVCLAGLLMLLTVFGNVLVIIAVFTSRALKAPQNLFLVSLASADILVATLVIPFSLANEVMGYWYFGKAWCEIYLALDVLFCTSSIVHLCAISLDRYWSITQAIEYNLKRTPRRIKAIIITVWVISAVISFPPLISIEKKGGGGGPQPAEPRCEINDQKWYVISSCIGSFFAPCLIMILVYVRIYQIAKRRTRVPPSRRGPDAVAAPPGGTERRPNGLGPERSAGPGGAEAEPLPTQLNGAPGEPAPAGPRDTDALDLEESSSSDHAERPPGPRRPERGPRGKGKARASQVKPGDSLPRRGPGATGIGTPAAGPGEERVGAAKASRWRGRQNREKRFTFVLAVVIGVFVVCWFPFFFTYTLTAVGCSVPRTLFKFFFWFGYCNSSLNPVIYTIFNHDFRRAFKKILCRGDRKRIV

Compound `CCCN1CCC(c2cccc(S(C)(=O)=O)c2)CC1` [pridopidine, 4-(3-(methylsulfonyl)phenyl)-1-propylpiperidine] has a receptor occupancy at 45 mg (D2R [1]) of about 3%, a receptor occupancy at 90 mg (D2R [1]) of about 30% and a receptor occupancy at 150 mg (D2R [1]) of over 40%. For the same compound, the “% D2R occupancy” value (D2R [2]; 3 mg/kg PO) was 0%, the “% D2R occupancy” value (D2R [2]; 15 mg/kg PO) was 0% and the “S1R occupancy (estimated)” value (σ1R [3]) was “fully occupy the S1Rs”. The “motor function, UHDRS Total Motor Score (TMS)” value [4] was “significantly improved motor function”, the “nH (Hill coefficient)” value (Muscarinic M2) was 0.62 and the binding [5] was “no observed binding”. For the same compound, the “nH (Hill coefficient)” value (Adrenergic α2C) was 0.76, the binding (NMDAR) was “no observed binding” and the “nH (Hill coefficient)” value (Serotonin 5-HT7) was 1.02. For the same compound, the “nH (Hill coefficient)” value (Sigma-1 (σ1R)) was 0.87, the “affinity for S1R compared to Dopamine D2R” value (Sigma-1 (σ1R); S1R vs D2R) was “approximately 100 fold” and the “nH (Hill coefficient)” value (Serotonin 5-HT1A) was 0.72. The “nH (Hill coefficient)” value (Sigma-2 (σ2R)) was 0.80, the binding (5-HT6) was “no observed binding” and the “nH (Hill coefficient)” value (Serotonin 5-HT2A) was 0.81. For the same compound, the binding [6] was “no observed binding”, the binding (Tachykinin NK1) was “no observed binding” and the “nH (Hill coefficient)” value (Histamine H3) was 0.85. For the same compound, the “nH (Hill coefficient)” value (Dopamine D3) was 0.90, the “binding against the dopamine D2 receptors” value (Dopamine D2) was “negligible or no binding” and the “nH (Hill coefficient)” value (Dopamine D2) was 0.94. The binding (adrenergic alpha-1) was “low-affinity binding”, the binding [7] was “no observed binding” and the “nH (Hill coefficient)” value (Adrenergic α2A) was 0.98. The symptoms of dyskinesia [8] was “effective (provides at least an additive effect or more than an additive effect)”, the “anti-parkinsonian benefit of L-DOPA” value [9] was “does not affect the anti-parkinsonian benefit of L-DOPA” and the “bad quality on-time evoked by levodopa” value [9] was “improves the bad quality on-time”. The symptoms of dyskinesia [9] was “effective in improving symptoms of dyskinesia”, the “difference in TFC score decline vs placebo” value (HD patients; 45 mg bid, 52 weeks, nominal p=0.003) was 0.87 (95% confidence interval: 0.29-1.45) and the “TMS change from baseline vs placebo” value (HD patients; 45 mg bid, weeks 26 or 52) was “trend towards improvement”. The “TMS change from baseline vs placebo” value (HD patients; 112.5 mg bid, 52 weeks) was “no improvement”, the TFC decline (HD patients; high dose (>90 mg bid)) was “failed to show improvement” and the “TMS efficacy compared to placebo or the 45 mg bid dose” value (HD patients; high doses (≥67.5 bid)) was “none of the high doses of pridopidine (≥67.5 bid) showed improved efficacy”. The receptor occupancy at 45 mg (σ1R [10]) was over 90%, the receptor occupancy at 90 mg (σ1R [10]) was over 90% and the receptor occupancy at 150 mg (σ1R [10]) was over 90%. For the same compound, the “L-DOPA-induced sensitization of contraversive-rotation” value (6-OHDA-lesioned rat) was “decreased”, the “anti-parkinsonian benefit of L-DOPA” value (6-OHDA-lesioned rat) was “no decrease” and the “% σ1R occupancy” value (σ1R [11]; NHP, 15 mg/kg PO, extrapolated from in vitro binding, 15 mg/kg) was over 80%. It also gave a receptor occupancy at 7 mg/kg (σ1R [11]; po, read-out: % σ1R occupancy, NHP, 7 mg/kg PO, extrapolated from in vitro binding) of 60 to 80%, a receptor occupancy at 15 mg/kg (σ1R [11]; po, read-out: % σ1R occupancy, NHP, 15 mg/kg PO, extrapolated from in vitro binding) of over 85% and a receptor occupancy at 20 mg/kg (σ1R [11]; po, read-out: % σ1R occupancy, NHP, 20 mg/kg PO, extrapolated from in vitro binding) of over 80%. The receptor occupancy at 30 mg/kg (σ1R [11]; po, read-out: % σ1R occupancy, NHP, 30 mg/kg PO, extrapolated from in vitro binding) was over 80%, the receptor occupancy at 30 mg/kg (σ1R [11]; read-out: S1R occupancy (expected), high, effective dose (30 mg/kg, or 20 mg/kg in study 1)) was over 80% and the receptor occupancy at 20 mg/kg (σ1R [11]; read-out: S1R occupancy (expected), low, ineffective doses (7 and 15 mg/kg (study 1), 20 mg/kg in study 2)) was over 80%. It also gave a receptor occupancy at 60 mg/kg (D2R [12]) of 45% and a receptor occupancy at 60 mg/kg (σ1R [13]) of over 85%.
